Values of other authors in patent US20080139615A1, “COMBINATION OF A HYPNOTIC AGENT AND R (+)-ALPHA-(2,3-DIMETHOXY-PHENYL)-1-[2-(4-FLUOROPHENYL)ETHYL]-4-PIPERIDINEMETHANOL AND THERAPEUTIC APPLICATION THEREOF” (priority 2005, published 2008).

Key:
[1] = average dosage between 5 and 10 mg, conventional formulation
[2] = tested on: slow wave sleep (SWS), arousals; conditions: patients with sleep maintenance insomnia

Compound | acting time [1] | half life (average value) [1] | SWS (slow wave sleep) [2]
Cc1ccc(-c2nc3ccc(C)cn3c2CC(=O)N(C)C)cc1 [Zolpidem, zolpidem] | up to 6 hours | about 2.4 hours | –
COc1cccc([C@H](O)C2CCN(CCc3ccc(F)cc3)CC2)c1OC [Compound A, R-(+)-α-(2,3-dimethoxyphenyl)-1-[2-(4-fluorophenyl)ethyl]-4-piperidinemethanol] | – | – | increase
